Laboratory results: ChEMBL document CHEMBL1667855, “Pyrrolidinone diterpenoid from Isodon excisus and inhibition of nitric oxide production in lipopolysaccharide-induced macrophage RAW264.7 cells” (Bioorg Med Chem Lett, 2011)

Assays:
RAW264.7 [1] = experiment: Cytotoxicity against mouse RAW264.7 cells assessed as cell viability by cell counting-based calorimetric assay
RAW264.7 [2] = experiment: Inhibition of LPS-induced NO production in mouse RAW264.7 cells assessed as nitrite formation after 24 hrs; type: functional, cell-based; details: RAW264.7, 24 h

Structure (SMILES)	IC50 (RAW264.7 [2])	Activity (RAW264.7 [1])
C[C@H](O)/C=C/[C@@]12O[C@]1(C)C[C@@H](O)CC2(C)C [CORCHOIONOL A]	> 40 µM	Non-toxic
CC[C@H](O)/C=C/C=C/C=C/C(=O)CCCCCCCC(=O)O [CORCHORIFATTY ACID B]	> 40 µM	Non-toxic

More lines, main results first:

IC50 (RAW264.7 [2])	Structure (SMILES)	Activity (RAW264.7 [1])
10.4 µM	C=C1C(=O)[C@@]23CC[C@@H]4[C@](C)(CO[C@@H]5CCC(=O)N5)[C@@H](OC(C)=O)CC[C@@]4(C)[C@@H]2[C@@H](O)C[C@@H]1C3 [EXCISUSIN F]	Non-toxic
> 40 µM	C=C1[C@@H]2C[C@H](O)[C@@H]3[C@@](C2)(C[C@H](O)[C@@H]2C(C)(C)[C@@H](OC(C)=O)C[C@H](O)[C@]23C)[C@@H]1OC(C)=O [INFLEXARABDONIN D]	Non-toxic
3.8 µM	C=C1C(=O)[C@@]23CC(=O)[C@@H]4C(C)(C)[C@@H](OC(C)=O)C[C@H](O)[C@@]4(C)[C@@H]2[C@@H](O)C[C@@H]1C3 [INFLEXARABDONIN E]	Non-toxic
